In a melting point compilation (Tetko et al.; mined from patent text by program, amines drawn as free bases though some values may be those of a salt) one finds melting point data, which are given here for 33 compounds.

Where only a bound is given, the exact number is not on record here.

What is called melting point is the temperature, or range, at which the solid turns liquid.

`CC(=O)NC[C@H]1CN(c2ccc(N3CCC(O)(CN4CCNCC4)CC3)c(F)c2)C(=O)O1`: the melting point fell in the range of 175 to 177 °C.
`N#CC(=NNC(=N)N)c1cccc(Cl)c1Cl` had a melting point of 221 to 222 °C.
`CN(C)c1ccc(-c2nnc(S)nc2-c2ccc(N(C)C)cc2)cc1` yielded a melting point of 276 to 279 °C.
With `Cc1nn2c(-c3cc(Cl)ccc3Cl)ccnc2c1C#N`, the melting point was in the range of 234 to 236 °C.
`O=C(O)[C@H](Cc1cccc(OC(F)(F)C(F)F)c1)[C@@H](O)c1ccc(Oc2ccccc2)cc1` (racemic) displayed a melting point of 109 to 110 °C.
With `C=CCn1c(=O)c(C(=O)OCC)c(N)c2ccccc21` the figure was 132 to 134 °C; with `CCOC(=S)SCCC(=O)N1CCC[C@H]1C(=O)O`, 94 to 95 °C; with `CCCCC(=O)Nc1ccc(Cl)c(-n2nc(CCCC)c(Cc3ccc(-c4ccccc4S(=O)(=O)NC(=O)c4ccccc4Cl)cc3)c2C(=O)O)c1`, more than 110 °C.
Compound `Nc1nc(-c2cc(F)cc(F)c2)nc2nc(-c3ccco3)nn12` yielded a melting point of 356 to 360 °C.
The same measure for `CCCCC(C(=O)O)c1cccc(C(=O)c2cc3ccsc3s2)c1` (stereo not drawn): 131 °C.
With `COC(=O)c1ncn(Cc2ccc([N+](=O)[O-])cc2)n1` the figure was 175 to 177 °C; with `O=C1c2ccccc2C(=O)N1CCc1c[nH]c(=O)[nH]c1=O`, 324 to 327 °C; with `COc1cccc2c1CCc1c-2nc2ccccc2c1N`, 126 to 129 °C.
For the compound `O=C(Nc1ccc(S(=O)(=O)c2ccccn2)cc1)C(O)(C(F)F)C(F)F`, the melting point lay within 200 to 202 °C.
With `COc1ccc(Cl)cc1NC(=S)C1CCCCn2c1nc(-c1ccncn1)cc2=O` (racemic) the figure was 220 to 223 °C.
`CCC1c2ccccc2-c2cc(-c3cccc4c3oc3ccccc34)ccc2N1S(=O)(=O)c1ccc(O)cc1` (stereo not drawn): the melting point was 218 to 220 °C.
As to `O=S(=O)(c1ccc(Cl)cc1)N1CCCC1c1ccc(F)cc1` (racemic), the melting point was 118 °C.
Regarding `O=C(O)CSCCCCCCn1nc(-c2ccccc2)c(-c2ccccc2)c1-c1ccccc1`, the melting point was in the range of 92 to 97 °C.
As to `COc1ccc(CC2CCC3=C(C2)CC(C)C(=O)N3)cc1` (stereo not drawn), the melting point is 182 to 184 °C.
The same measure for `N#Cc1cc(NC(=O)c2cccn2-c2ccc(F)cc2)ccc1N1CCN(CCO)CC1`: 170 to 171 °C.
With `O=C1NC(=O)C(c2c3n(c4ccccc24)CCC(CO)C3)=C1c1ccccc1Cl` (stereo not drawn) the figure was 232 to 233 °C; with `COc1cccc(/C(=C/C=C/C(=O)Oc2ccc([N+](=O)[O-])cc2)c2ccccc2)c1`, 101 to 103 °C; with `COc1cc(C2CCN(C(=O)C(C)(C)N)CC2)ccc1Nc1ncc2ccc(-c3ccccc3OC)n2n1`, 81 to 89 °C.
With `Clc1cccnc1-c1ccc2[nH]nc(Nc3ncc(CN4CCOCC4)s3)c2c1` the figure was 217 °C; with `CC(C)[C@@H]1OC(=O)N[C@@H]1C(=O)OCc1ccccc1`, 99 to 101 °C; with `NCCCC(=O)N1CCC(c2[nH]nc3c2C(=O)c2c(NC(=O)NN4CCOCC4)cccc2-3)CC1`, 172 to 174 °C.
In the case of `N#Cc1nn(-c2c(Cl)cc(C(F)(F)F)cc2Cl)cc1C1CC(=O)C1`, the melting point came out at 127 °C.
Take `O=C(O)c1cc(C(F)(F)F)ccc1OCc1ccccc1`: the melting point was 94 to 95 °C.
The same measure for `CCCCCCCCCCCCCCCCCCNC(=O)c1ccc(O)cc1`: 105 °C.
With `CC(=O)NCCC1CCc2ccc3c(c21)CCO3` (stereo not drawn) the figure was 78 to 79 °C.
As to `CCCCCCCCCCCCCCOC(=O)c1cc(C(=O)OCCCCCCCCCCCCCC)cc(N(CC(=O)O)CC(=O)O)c1`, the melting point was 84 to 87 °C.
In the case of `CC(C)CCn1cc(C2CCN(CCOc3ccccc3C(=O)O)CC2)c2ccccc21`, the melting point was in the range of 150 to 151 °C.
As for `Cc1nc(-c2ccc(=O)n(C(C)C)n2)c(-c2ccccc2)nc1N`, the melting point fell in the range of 208 to 210 °C.
